Read-outs that look alike come from different tables or passages of the source. Marks after values point to notes of the source that are not given here.
How the values were obtained:
[1] = Chemical stability in human blood plasma; type: in vitro ADME; conditions: pooled human blood plasma; 10 μm; 4 hours at 37° C.; substance amount remaining
Description: 2) Determination of chemical stability in human blood plasma.
Determination of stability in human blood plasma was performed using pooled human blood plasma taken from ten healthy donors. The initial candidate solution (10 mM in DMSO) was diluted with pooled blood plasma to a concentration of 10 μm (test solution). The test solution was incubated in a dry block thermostat for 4 hours at 37° C. HPLC with Agilent 1200 liquid chromatography system (Agilent, USA) was employed to determine peak areas of the compounds in test samples, said peak areas corresponding to the initial test time (prior to incubation) and the final test time (after incubation in a dry block thermostat for 4 hours at 37° C.), proteins were preliminarily precipitated with acetonitrile. We used gradient elution (1 mL/min flow rate). Substance amount in % in a sample after thermostatting was determined.
The stability of the compounds was estimated.

[2] = Enzyme stability in human liver S9 fractions; type: in vitro ADME; conditions: 0.5 mg/mL pooled human liver S9 fractions; 10 μM compound; 37° C.; pH 7.4; read-out: Stability in liver S9 fractions, Clint
Description: Determination of enzyme stability.
Measuring of candidate enzyme stability enabled estimation of the stability of the compounds towards the action of liver enzymes.
Enzyme degradation rate was measured by incubating the reaction mixture in a dry block thermostat at 37° C., said reaction mixture comprising 0.5 mg/mL of pooled human liver S9 fractions (XenoTech, USA, cat # H0610), 10 μM compound, 2 mM β-nicotinamide adenine dinucleotide (Carbosynth, UK, cat # NN10871) and 4 mM magnesium chloride in 0.1 M sodium-phosphate buffer, pH=7.4. The reaction was quenched with acetonitrile (100 μL of acetonitrile/100 μL of the reaction mixture). After quenching, the samples were centrifuged at 10000 rpm for 10 minutes. Supernatant fluid was tested by chromatographic technique using Agilent1200 (Agilent, USA). We used gradient elution (1 mL/min flow rate). A graph of the logarithm of substance's peak area as a function of time was made. The dependent factor of the line corresponded to the elimination rate constant K based on which the drug's half-life T½ and intrinsic clearance CLint were calculated:
Based on the data obtained, candidate enzyme stability in human liver S9 fractions was determined (see Table 11).

WT EGFR (Wild-Type EGFR) = molecular target: T1, WT EGFR (Wild-Type EGFR) (Homo sapiens, UniProt P00533); assay: Inhibition of WT EGFR kinase activity (ADP-Glo); type: biochemical
T1 construct: purchased SignalChem
Description: (§1) To assess IC50 values of the compounds disclosed herein, a biochemical assay of inhibition of kinase activity in a non-cellular system and a functional cellular anti-proliferation assay were used.
(§2) To assess inhibition of WT EGFR (Wild-Type EGFR), DM EGFR (DoubleMutantEGFR, L828R/T790M) kinase activity, SignalChem kinase system and ADP-Glo™ Kinase Assay (V9102, Promega) detection kit were used.
(§3) The measurements were carried out in a 25 μL reaction volume using a 96-well plate. […] The solution of 0.5 mg/mL peptide substrate and 50 μM ATP in the same buffer were added; the solution was incubated for 180 minutes at 37° C. To detect the amount of ATP taken up during the kinase reaction, the ADP Glo Detection Kit (V9102, Promega) was used. The luminescence was measured with the Infinite M200Pro plate spectrophotometer (Tecan, Switzerland). IC50 values were calculated using Magellan 7.2 software (Tecan, Switzerland) approximating experimental points by four-parameter logistic model with the optimization by Levenberg-Marquardt (Table 14).

[3] = molecular target: T2, DM EGFR (DoubleMutantEGFR, L828R/T790M) (Homo sapiens, UniProt P00533, L858R/T790M); assay: Inhibition of DM EGFR kinase activity (ADP-Glo); type: biochemical; conditions: for IC50: inhibition of kinase activity, EGFR DM (L828R/T790M); for SI, IC50(WT)/IC50(DM): selectivity index, kinase EGFR WT vs EGFR DM
T2 construct: purchased SignalChem
Description: as §1, §2, §3

[4] = tested on: A549 (lung adenocarcinoma, WT); assay: Antiproliferative activity on A549 cells (Alamar Blue); type: cell-based; conditions: Homo sapiens, antiproliferative test
Description: (§4) Antiproliferative activity of EGFR inhibitors (Tables 15 and 16) was measured in cell-based bioassay on continuous epithelial cell cultures: A549 (lung adenocarcinoma, ATCC® CRM-CCL-185™—WT), HCC827 (lung adenocarcinoma, ATCC® CRL-2868™—SM (SingleMutantEGFR, exon19delE746-A750)) and H1975 (lung adenocarcinoma, ATCC® CRL-5908™—DM (DoubleMutantEGFR, L828R/T790M)) using cell viability reagent Alamar Blue (ThermoFisher, # DAL1100). Cells were cultured in 10% FBS-supplemented (Gibco, #16140071) RPMI-1640 (PanEco, S330p) for at least 1 passage after thawing, washed with PBS and passaged in 96-well culture plates (3599, Corning) with RPMI-1640 growth medium supplemented with 2% FBS in an amount of 5*10^3 cells/well for A549, 10*10^3 cells/well for HCC827 and 15*10^3 cells/well for H1975 in 100 μL, and incubated at 37° C. in an incubator (Thermo Forma, USA) under 5% of CO2 for 16-18 h for cell attachment.
(§5) The test compounds were dissolved in DMSO in the selected range of concentrations and transferred to RPMI-1640 medium (PanEco, S330p) supplemented with 2% FBS. After adding 50 μl of the prepared dilutions to the cells, the incubation mixture contained the final concentrations of the test substances and no more than 1% DMSO. The plates were Incubated at 37° C. for 72 h. After incubation, 15 μl of Alamar Blue vital dye (ThermoFisher, # DAL1100) was added to each well. The plates were shaken on an orbital shaker (Biosan, Latvia) and further incubated for 3-5 h in a CO2 incubator (Thermo Forma, USA). Number of living cells was estimated using a plate spectrophotometer Infinite M200Pro, (Tecan, Switzerland) measuring fluorescent signal at the excitation wavelength (λEx) of 540 nm and emission wavelength (λEm) of 590 nm.
IC50 was calculated using Magellan 7.2 software (Tecan, Switzerland) approximating experimental points by four-parameter logistic model with the optimization by Levenberg-Marquardt.
(§6) The ratio between IC50 for cell lines containing wild-type EGFR (A549) and IC50 for cell lines containing target mutation L828R/T790M (H1975) is the selectivity index (SI): […]

[5] = tested on: H1975 (lung adenocarcinoma, DM, L828R/T790M); assay: Antiproliferative activity on H1975 cells (Alamar Blue); type: cell-based; conditions: for IC50: Homo sapiens, NCI-H1975, H1975 cells; for SI IC50(A549)/IC50(DM): selectivity index, A549 vs H1975 cells
Description: as §4, §5
IC50 was calculated using Magellan 7.2 software (Tecan, Switzerland) approximating experimental points by four-parameter logistic model with the optimization by Levenberg-Marquardt. […]
as §6

[6] = General cytotoxicity on HepG2 cells; type: cell-based; conditions: human; general cytotoxicity, HepG2 cells, 72 hours, average of several tests
Description: (§7) The CC50 values were determined in the test for General cytotoxicity on HepG2 cells (rhepatocellular carcinoma, ATCC® HB-8065™) (Table 16). The cells were subcultured in DMEM medium (PanEco, S420p) supplemented with 10% FBS (Gibco, #16140071) for at least 1 passage after thawing, washed with PBS and passaged in 96-well culture plates (3599, Corning) at a concentration of 2*10^4 cells/100 μL per well, and incubated for 16-18 h. The test substances were titrated in DMSO and transferred to DMEM (PanEco, S420p) medium supplemented with 2% FBS, added to the cells and incubated at 37° C. for 72 hours; viability of the cells was then assessed using Alamar Blue dye (ThermoFisher, # DAL1100). CC50 was determined similarly to IC50.
(§8) The ratio between CC50 for HepG2 cell line and IC50 for H1975 cell line is the therapeutic index (TI): […]

HepG2 cells = assay: General cytotoxicity on HepG2 cells; type: cell-based; conditions: therapeutic index, CC50 HepG2 / IC50 H1975
Description: as §7, §8

[7] = average values obtained in several tests, Table 16, read-out: H1975 (DM) IC50
[8] = antiproliferative test, Table 15, read-out: IC50 H1975 (DM)

SMILES | Stability in blood plasma, % [1] [%] | Intrinsic clearance in human liver S9 fractions at 10 µM [2] [µL/min/mg] | IC50 (WT EGFR (Wild-Type EGFR)) [nM] | IC50 [3] [nM] | SI, IC50(WT)/IC50(DM) [3] | IC50 [4] [nM] | IC50 [5, 7] [nM] | IC50 [5, 8] [nM] | SI IC50(A549)/IC50(DM) [5] | CC50 at 72 h [6] [nM] | TI, CC50/IC50 (HepG2 cells)
C=CC(=O)Nc1cc(Nc2nccc(C(=O)c3ccc(OC(C)C)cc3OC)n2)c(OC)cc1N(C)CCN(C)C [EGFR_3365_103, N-(2-((2-(dimethylamino)ethyl)(methyl)amino)-5-((4-(4-isopropoxy-2-methoxybenzoyl)pyrimidin-2-yl)amino)-4-methoxyphenyl) acrylamide] | 96.2 | 20.4 | 22.6 | 2.14 | 10.60 | 12600 | 13.2 | 13.2 | 954 | 29400 | 2232
C=CC(=O)Nc1cc(Nc2nccc(C(=O)c3ccc(OC)cc3OC(C)C)n2)c(OC)cc1N(C)CCN(C)C [EGFR_3365_104] | 77.2 | 21.8 | 113 | 6.42 | 17.61 | 3780 | 258 | 258 | 15 | 18700 | 73
C=CC(=O)Nc1cc(Nc2nccc(C(=O)c3ccc(NCCOC)cc3)n2)c(OC)cc1N(C)CCN(C)C [EGFR_3365_105, N-(2-((2-(dimethylamino)ethyl)(methyl)amino)-4-methoxy-5-((4-(4-((2-methoxyethyl)amino)benzoyl)pyrimidin-2-yl)amino)phenyl)acrylamide] | 89.4 | 11.3 | 109 | 2.93 | 37.17 | 84100 | 21.6 | 21.6 | 3898 | 45600 | 2114
C=CC(=O)Nc1cc(Nc2nccc(C(=O)c3ccc(NCCO)cc3)n2)c(OC)cc1N(C)CCN(C)C.O=CO [EGFR_3365_106, N-(2-((2-(dimethylamino)ethyl)(methyl)amino)-5-((4-(4-((2-hydroxyethyl)amino)benzoyl)pyrimidin-2-yl)amino)-4-methoxyphenyl)acrylamide formate] | 95.2 | 6.7 | 108 | 5.5 | 19.68 | > 20000 | 33.3 | 33.3 | >601 | > 50000 | >1501**
C=CC(=O)Nc1cc(Nc2nccc(C(=O)c3ccc(N4CCC[C@H](O)C4)cc3)n2)c(OC)cc1N(C)CCN(C)C [EGFR_3365_108, (S)-N-(2-((2-(dimethylamino)ethyl)(methyl)amino)-5-((4-(4-(3-hydroxypiperidin-1-yl)benzoyl)pyrimidin-2-yl)amino)-4-methoxyphenyl)acrylamide] | 100.0 | 12.8 | 25.4 | 1.71 | 14.85 | 21400 | 4.35 | 4.35 | 4925 | 47900 | 11026
C=CC(=O)Nc1cc(Nc2nccc(C(=O)c3ccc(N4CCC[C@@H](O)C4)cc3)n2)c(OC)cc1N(C)CCN(C)C [EGFR_3365_109, (R)-N-(2-((2-(dimethylamino)ethyl)(methyl)amino)-5-((4-(4-(3-hydroxypiperidin-1-yl)benzoyl)pyrimidin-2-yl)amino)-4-methoxyphenyl)acrylamide] | 98.2 | 14.8 | 25.2 | 3.14 | 8.03 | 17700 | 8.66 | 8.66 | 2043 | 45400 | 5245

— patent US20200339544A1 (JOINT STOCK COMPANY "BIOCAD", priority 2017, published 2020)
